A compilation of properties of binary mixtures (doi:10.1016/j.molliq.2014.07.002)

Test: xn = mol fraction of the nth substance listed
Conditions: 101 kPa

CC[n+]1ccn(C)c1.COS(=O)(=O)[O-] + CN1CCCC1=O
Conditions	speed of sound, 298.15 K [m/s]	speed of sound, 303.15 K [m/s]	speed of sound, 308.15 K [m/s]	speed of sound, 313.15 K [m/s]	viscosity, 298.15 K [mPa·s]	viscosity, 303.15 K [mPa·s]	viscosity, 308.15 K [mPa·s]	viscosity, 313.15 K [mPa·s]
x1 = 0.0115	1579	1557	–	1518	2.22	1.88	–	1.6
x2 = 0	1730	1718	1707	1694	84	69	56.7	47.6
x2 = 0.0419	1724	1708	1692	1679	77	63	51.3	42.8
x2 = 0.0861	1718	1702	1685	–	69	56	45.9	–
x2 = 0.2085	1711	1688	1663	1644	53.3	42.1	33.6	27.7
x2 = 0.3825	1700	–	1651	1632	35.9	–	21.8	17.7
x2 = 0.5291	1684	–	1630	1614	23.3	–	14	11.5
x2 = 0.6518	1663	1638	–	1593	14.6	10.8	–	8.2
x2 = 0.718	1649	1622	–	1579	10.5	8.9	–	6.07
x2 = 0.757	1639	1610	1582	1566	9.2	7.3	5.82	5.22
x2 = 0.8502	–	1589	1560	1545	–	4.04	3.61	3.27
x2 = 0.8983	1604	1577	1544	1528	4.01	3.11	2.8	2.56
x2 = 0.9298	1596	–	1536	1524	3.43	–	2.22	2.11
x2 = 0.9743	1582	1560	1534	1522	3.11	2.05	1.86	1.73

CN1CCCC1=O + CCCC[n+]1ccn(C)c1.[Cl-]
x1 = 1
Conditions	speed of sound [m/s]
308.15 K	1528
313.15 K	1520

CCCC[n+]1ccn(C)c1.[Cl-] + CN1CCCC1=O
speed of sound [m/s]
Conditions	298.15 K	303.15 K	308.15 K	313.15 K
x1 = 0.0138	1575	1555	1531	1527
x2 = 0	1874	1865	1855	1827
x2 = 0.01	–	1860	1848	–
x2 = 0.0396	1853	1844	–	–
x2 = 0.0814	1837	1829	1819	1796
x2 = 0.1986	1800	1790	1779	1760
x2 = 0.3683	1755	–	–	–
x2 = 0.5125	1723	–	1688	1674
x2 = 0.6367	–	1674	1654	–
x2 = 0.704	1670	1655	–	1623
x2 = 0.7466	1656	–	1621	1611
x2 = 0.8415	1625	1609	–	–
x2 = 0.8939	1606	1588	1568	1559
x2 = 0.9254	–	–	1556	1552
x2 = 0.9721	1579	1562	1539	1536

CN1CCCC1=O + CC[n+]1ccn(C)c1.COS(=O)(=O)[O-]
x1 = 1
Conditions	speed of sound [m/s]	viscosity [mPa·s]
298.15 K	1572	1.66
303.15 K	1552	1.49
308.15 K	1528	1.39
